Measurements from patent US10703760B2, “Morphic forms of marizomib and uses thereof” (Celgene International II Sàrl, priority 2016, dated 2020).
In brackets after ≈: the same amount, converted by molar mass.

How the values were obtained:
Assay type in all cases: physicochemical
[1] = Dynamic vapor sorption (DVS) of Sample 4
Source text: Prior to any testing, Sample 4 was characterized by XRPD, TGA, DSC, 1HNMR, and DVS. The results are given below in Table-8. The Corresponding figure numbers are given in the right hand column.

[2] = Approximate solubility of Sample 4 by solvent aliquot addition, visual inspection; post-solubility storage; details: for solubility: thermodynamic from solid
Method: Weighed samples of MRZ, Sample 4 were treated with aliquots of the test solvents or solvent mixtures at ambient temperature. Complete dissolution of the test material was determined by visual inspection. Solubility was estimated based on the total solvent volume used to provide complete dissolution. The actual solubility may be greater than the value calculated because of the use of solvent aliquots that were too large or due to a slow rate of dissolution. If complete dissolution was not achieved during the experiment, the solubility is expressed as “less than”. If complete dissolution was achieved by only one aliquot addition, the value is reported as “larger than”. As set forth in Table-9, the ratio of solvent mixtures are given by volume. Solubilities are estimated at ambient temperature and reported to the nearest mg/mL; if complete dissolution was not achieved, the value is reported as “<”; the actual solubility may be greater than the reported value due to the use of solvent aliquots that were too large or due to a slow rate of dissolution. Post-solubility samples were stored at 2-8° C. for 15-16 days followed by 1 day at ambient storage before visual inspection for precipitation. Post-solubility samples were visually inspected after 2-3 days of ambient storage. Formation system A is: 55% propylene glycol+5% ethanol+40% citrate buffer (10 mM; pH 5). Formation system B is: 14/86 (v/v) H2O/tert-butyl alcohol containing 30 mg/mL sucrose, and titrated with HCl to pH 3.2±0.2.

Salt screen of marizomib = details: sulfonic acids and mineral acids
Method: For crash cooling (CC), a solution of MRZ and coformer was prepared at elevated temperature in a given solvent mixture. The vial was capped and immediately placed in a refrigerator or freezer. For fast cooling (FC), solutions of MRZ and coformer were prepared at elevated temperatures in given solvents or solvent mixtures. The vial was capped and placed on a bench top at room temperature to quickly cool. For slow cooling (SC), a solution of MRZ and coformer was prepared at elevated temperature in a given solvent mixture. The vial was capped and left in a heating block at elevated temperature. The heater then was turned off for the sample to cool down naturally to room temperature. For slow evaporation (SE), solutions of MRZ and coformer were generated at ambient temperature in a given solvent or solvent mixture. The solutions were allowed to evaporate partially or to dryness from a loosely capped vial at ambient conditions. Slurry experiments were carried out by making saturated solutions containing excess solid. The slurries were agitated at ambient or elevated temperatures for a specified amount of time. The solids present were recovered via positive pressure filtration. Solvent assisted grinding experiments were carried out by mixing MRZ and coformer in an agate mortar and pestle. Aliquots of solvent were added and the mixture ground manually for specified amount of time. […]

SMILES: C[C@@]12OC(=O)[C@]1([C@@H](O)[C@@H]1C=CCCC1)NC(=O)[C@@H]2CCCl [Sample 4, marizomib]
- DVS weight change ([1]; 5-75% RH): +0.039 wt % (5-75% RH)
- DVS weight change ([1]; 75-95% RH): +1.158 wt % (75-95% RH)
- DVS weight change ([1]; 95-5% RH): −1.276 wt % (95-5% RH)
- DVS weight change ([1]; at 5% RH): −0.035 wt % (at 5% RH)
- solubility ([2]; aqueous with cosolvent or surfactant or cyclodextrin, Formulation System A (55% propylene glycol + 5% EtOH + 40% citrate buffer 10 mM pH 5), ambient temperature): < 1 mg/mL
- solubility ([2]; aqueous with cosolvent or surfactant or cyclodextrin, Formulation System B (14/86 v/v H2O/tBA, 30 mg/ml sucrose, pH 3.2), ambient temperature): 6 mg/mL (≈ 19.1 mM)
- solubility ([2]; organic solvent or mixture, 1-propanol, ambient temperature): 2 mg/mL (≈ 6.37 mM)
- solubility ([2]; organic solvent or mixture, 2,2,2-trifluoroethanol, ambient temperature): < 1 mg/mL
- solubility ([2]; organic solvent or mixture, 2-Me THF, ambient temperature): 32 mg/mL (≈ 102 mM)
- solubility ([2]; organic solvent or mixture, 20:80 2-MeTHF/MeOAc (v/v), ambient temperature): 34 mg/mL (≈ 108 mM)
- solubility ([2]; organic solvent or mixture, 20:80 CHCl3/DCM (v/v), ambient temperature): 3 mg/mL (≈ 9.56 mM)
- solubility ([2]; organic solvent or mixture, 20:80 MEK/IPA (v/v), ambient temperature): 10 mg/mL (≈ 31.9 mM)
- solubility ([2]; organic solvent or mixture, 20:80 MEK/MIBK (v/v), ambient temperature): 12 mg/mL (≈ 38.2 mM)
- solubility ([2]; organic solvent or mixture, 20:80 NMP/1-propanol (v/v), ambient temperature): 19 mg/mL (≈ 60.6 mM)
- solubility ([2]; organic solvent or mixture, 20:80 NMP/IPA (v/v), ambient temperature): 19 mg/mL (≈ 60.6 mM)
- solubility ([2]; organic solvent or mixture, 20:80 THF/nitromethane (v/v), ambient temperature): 15 mg/mL (≈ 47.8 mM)
- solubility ([2]; organic solvent or mixture, 25:75 ACN/MTBE (v/v), ambient temperature): 10 mg/mL (≈ 31.9 mM)
- solubility ([2]; organic solvent or mixture, 25:75 DMF/anisole (v/v), ambient temperature): 17 mg/mL (≈ 54.2 mM)
- solubility ([2]; organic solvent or mixture, 50:50 EtOAc/cyclohexane (v/v), ambient temperature): 4 mg/mL (≈ 12.7 mM)
- solubility ([2]; organic solvent or mixture, 50:50 EtOAc/isooctane (v/v), ambient temperature): 2 mg/mL (≈ 6.37 mM)
- solubility ([2]; organic solvent or mixture, 50:50 MeOH/Et2O (v/v), ambient temperature): 21 mg/mL (≈ 66.9 mM)
- solubility ([2]; organic solvent or mixture, 50:50 THF/hexanes (v/v), ambient temperature): 21 mg/mL (≈ 66.9 mM)
- solubility ([2]; organic solvent or mixture, 50:50 acetone/heptane (v/v), ambient temperature): 12 mg/mL (≈ 38.2 mM)
- solubility ([2]; organic solvent or mixture, 50:50 acetone/iso-octane (v/v), ambient temperature): 12 mg/mL (≈ 38.2 mM)
- solubility ([2]; organic solvent or mixture, ACN, ambient temperature): 10 mg/mL (≈ 31.9 mM)
- solubility ([2]; organic solvent or mixture, CHCl3, ambient temperature): 2 mg/mL (≈ 6.37 mM)
- solubility ([2]; organic solvent or mixture, DCM, ambient temperature): 2 mg/mL (≈ 6.37 mM)
- solubility ([2]; organic solvent or mixture, DMSO, ambient temperature): > 83 mg/mL
- solubility ([2]; organic solvent or mixture, EtOAc, ambient temperature): 15 mg/mL (≈ 47.8 mM)
- solubility ([2]; organic solvent or mixture, Formic acid, ambient temperature): 15 mg/mL (≈ 47.8 mM)
- solubility ([2]; organic solvent or mixture, IPA, ambient temperature): 6 mg/mL (≈ 19.1 mM)
- solubility ([2]; organic solvent or mixture, MEK, ambient temperature): 33 mg/mL (≈ 105 mM)
- solubility ([2]; organic solvent or mixture, MIBK, ambient temperature): 11 mg/mL (≈ 35.1 mM)
- solubility ([2]; organic solvent or mixture, MeOAc, ambient temperature): 20 mg/mL (≈ 63.7 mM)
- solubility ([2]; organic solvent or mixture, NMP, ambient temperature): 5 mg/mL (≈ 15.9 mM)
- solubility ([2]; organic solvent or mixture, THF, ambient temperature): 49 mg/mL (≈ 156 mM)
- solubility ([2]; organic solvent or mixture, [EMIm][Cl], ambient temperature): < 2 mg/mL
- solubility ([2]; organic solvent or mixture, [EMIm][NTF2], ambient temperature): 1 mg/mL (≈ 3.19 mM)
- solubility ([2]; organic solvent or mixture, acetic acid, ambient temperature): 10 mg/mL (≈ 31.9 mM)
- solubility ([2]; organic solvent or mixture, acetone, ambient temperature): 39 mg/mL (≈ 124 mM)
- solubility ([2]; organic solvent or mixture, anisole, ambient temperature): 2 mg/mL (≈ 6.37 mM)
- solubility ([2]; organic solvent or mixture, cyclohexanone, ambient temperature): 22 mg/mL (≈ 70.1 mM)
- solubility ([2]; organic solvent or mixture, dioxane, ambient temperature): 20 mg/mL (≈ 63.7 mM)
- solubility ([2]; organic solvent or mixture, nitromethane, ambient temperature): 2 mg/mL (≈ 6.37 mM)
- solubility ([2]; organic solvent or mixture, pyridine, ambient temperature): 36 mg/mL (≈ 115 mM)
- solubility ([2]; organic solvent or mixture, tert-butanol, ambient temperature): 3 mg/mL (≈ 9.56 mM)
- Precipitates formed during storage? ([2]; post-solubility sample in 1-propanol): no
- Precipitates formed during storage? ([2]; post-solubility sample in 2-Me THF): no
- Precipitates formed during storage? ([2]; post-solubility sample in 20:80 2-MeTHF/MeOAc): no
- Precipitates formed during storage? ([2]; post-solubility sample in 20:80 CHCl3/DCM): no
- Precipitates formed during storage? ([2]; post-solubility sample in 20:80 MEK/IPA): no
- Precipitates formed during storage? ([2]; post-solubility sample in 20:80 MEK/MIBK): no
- Precipitates formed during storage? ([2]; post-solubility sample in 20:80 NMP/1-propanol): no
- Precipitates formed during storage? ([2]; post-solubility sample in 20:80 NMP/IPA): no
- Precipitates formed during storage? ([2]; post-solubility sample in 20:80 THF/nitromethane): no
- Precipitates formed during storage? ([2]; post-solubility sample in 25:75 ACN/MTBE): no
- Precipitates formed during storage? ([2]; post-solubility sample in 25:75 DMF/anisole): no
- Precipitates formed during storage? ([2]; post-solubility sample in 50:50 EtOAc/cyclohexane): no
- Precipitates formed during storage? ([2]; post-solubility sample in 50:50 EtOAc/isooctane): no
- Precipitates formed during storage? ([2]; post-solubility sample in 50:50 MeOH/Et2O): no
- Precipitates formed during storage? ([2]; post-solubility sample in 50:50 THF/hexanes): no
- Precipitates formed during storage? ([2]; post-solubility sample in 50:50 acetone/heptane): no
- Precipitates formed during storage? ([2]; post-solubility sample in 50:50 acetone/iso-octane): no
- Precipitates formed during storage? ([2]; post-solubility sample in ACN): no
- Precipitates formed during storage? ([2]; post-solubility sample in CHCl3): yes
- Precipitates formed during storage? ([2]; post-solubility sample in DCM): no
- Precipitates formed during storage? ([2]; post-solubility sample in DMSO): no
- Precipitates formed during storage? ([2]; post-solubility sample in EtOAc): no
- Precipitates formed during storage? ([2]; post-solubility sample in Formic acid): no
- Precipitates formed during storage? ([2]; post-solubility sample in Formulation System B): no
- Precipitates formed during storage? ([2]; post-solubility sample in IPA): no
- Precipitates formed during storage? ([2]; post-solubility sample in MEK): yes (small amount)
- Precipitates formed during storage? ([2]; post-solubility sample in MIBK): no
- Precipitates formed during storage? ([2]; post-solubility sample in MeOAc): no
- Precipitates formed during storage? ([2]; post-solubility sample in NMP): no
- Precipitates formed during storage? ([2]; post-solubility sample in THF): no
- Precipitates formed during storage? ([2]; post-solubility sample in acetic acid): no
- Precipitates formed during storage? ([2]; post-solubility sample in acetone): no
- Precipitates formed during storage? ([2]; post-solubility sample in anisole): no
- Precipitates formed during storage? ([2]; post-solubility sample in cyclohexanone): no
- Precipitates formed during storage? ([2]; post-solubility sample in dioxane): no
- Precipitates formed during storage? ([2]; post-solubility sample in nitromethane): no
- Precipitates formed during storage? ([2]; post-solubility sample in pyridine): no
- Precipitates formed during storage? ([2]; post-solubility sample in tert-butanol): no

SMILES: C[C@@]12OC(=O)[C@]1([C@@H](O)[C@@H]1C=CCCC1)NC(=O)[C@@H]2CCCl [marizomib]
- Crystalline salt formation (Salt screen of marizomib): No crystalline salt of marizomib was produced
